Tests used:
Experiment in all cases: relative viability (nuclei count vs DMSO), 5 days (fraction); higher = more cells survive
201T = tested on: 201T
How it was run: (§1)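 For relative viability, nuclei counts in treated wells were divided by those in vehicle wells. Lung cancer cell lines had been pin-tool dosed in 1536-well plates the day after seeding and cultured for 5 days, then fixed and stained in one step (final 0.05% Triton X-100, 1% formaldehyde, 1 ug/ml Hoechst) and imaged at 4×. Doses were one drug alone or a fixed anchor-drug dose plus five library-drug doses (not always all listed) in √10 steps, and values are duplicate-plate medians.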

A-427 = tested on: A-427
How it was run: as §1

BEN = tested on: BEN
How it was run: as §1

COR-L23 = tested on: COR-L23
How it was run: as §1

EKVX = tested on: EKVX
How it was run: as §1

HARA = tested on: HARA
How it was run: as §1

HCC-15 = tested on: HCC-15
How it was run: as §1

HCC-44 = tested on: HCC-44
How it was run: as §1

HCC-827 = tested on: HCC-827
How it was run: as §1

NCI-H1437 = tested on: NCI-H1437
How it was run: as §1

NCI-H1650 = tested on: NCI-H1650
How it was run: as §1

NCI-H1666 = tested on: NCI-H1666
How it was run: as §1

NCI-H1792 = tested on: NCI-H1792
How it was run: as §1

NCI-H1975 = tested on: NCI-H1975
How it was run: as §1

NCI-H2342 = tested on: NCI-H2342
How it was run: as §1

NCI-H23 = tested on: NCI-H23
How it was run: as §1

NCI-H358 = tested on: NCI-H358
How it was run: as §1

NCI-H441 = tested on: NCI-H441
How it was run: as §1

NCI-H596 = tested on: NCI-H596
How it was run: as §1

NCI-H650 = tested on: NCI-H650
How it was run: as §1

NCI-H838 = tested on: NCI-H838
How it was run: as §1

SK-MES-1 = tested on: SK-MES-1
How it was run: as §1

SW 900 = tested on: SW 900
How it was run: as §1

CCN(CC)CCCCNc1ncc2cc(-c3cc(OC)cc(OC)c3)c(NC(=O)NC(C)(C)C)nc2n1 + CC(=O)Nc1cccc(-n2c(=O)n(C3CC3)c(=O)c3c(Nc4ccc(I)cc4F)n(C)c(=O)c(C)c32)c1 [Trametinib] (partner 0.02 µM) was tested, and the relative viability (201T; first compound 0.01 µM) was 0.716, the relative viability (201T; first compound 0.03162 µM) was 0.725 and the relative viability (201T; first compound 0.1 µM) was 0.742. It also gave a relative viability (201T; first compound 0.3162 µM) of 0.742, a relative viability (201T; first compound 1 µM) of 0.605 and a relative viability (A-427; first compound 0.01 µM) of 0.784. It also gave a relative viability (A-427; first compound 0.03162 µM) of 0.68, a relative viability (A-427; first compound 0.1 µM) of 0.694 and a relative viability (A-427; first compound 0.3162 µM) of 0.595. It also gave a relative viability (A-427; first compound 1 µM) of 0.466, a relative viability (BEN; first compound 0.01 µM) of 1.15 and a relative viability (BEN; first compound 0.03162 µM) of 0.797. For the same compound, the relative viability (BEN; first compound 0.1 µM) was 0.978, the relative viability (BEN; first compound 0.3162 µM) was 1.09 and the relative viability (BEN; first compound 1 µM) was 0.888. It also gave a relative viability (COR-L23; first compound 0.01 µM) of 0.579, a relative viability (COR-L23; first compound 0.03162 µM) of 0.593 and a relative viability (COR-L23; first compound 0.1 µM) of 0.667. For the same compound, the relative viability (COR-L23; first compound 0.3162 µM) was 0.692, the relative viability (COR-L23; first compound 1 µM) was 0.61 and the relative viability (EKVX; first compound 0.03162 µM) was 0.4. It also gave a relative viability (EKVX; first compound 0.1 µM) of 0.365, a relative viability (EKVX; first compound 0.3162 µM) of 0.328 and a relative viability (EKVX; first compound 1 µM) of 0.311. For the same compound, the relative viability (HARA; first compound 0.01 µM) was 0.589, the relative viability (HARA; first compound 0.03162 µM) was 0.632 and the relative viability (HARA; first compound 0.1 µM) was 0.645. The relative viability (HARA; first compound 0.3162 µM) was 0.579, the relative viability (HARA; first compound 1 µM) was 0.466 and the relative viability (HCC-15; first compound 0.01 µM) was 0.427. For the same compound, the relative viability (HCC-15; first compound 0.03162 µM) was 0.367, the relative viability (HCC-15; first compound 0.1 µM) was 0.414 and the relative viability (HCC-15; first compound 0.3162 µM) was 0.42. The relative viability (HCC-15; first compound 1 µM) was 0.361, the relative viability (HCC-44; first compound 0.01 µM) was 0.987 and the relative viability (HCC-44; first compound 0.03162 µM) was 1.08. For the same compound, the relative viability (HCC-44; first compound 0.1 µM) was 1.1, the relative viability (HCC-44; first compound 0.3162 µM) was 1.11 and the relative viability (HCC-44; first compound 1 µM) was 0.931. It also gave a relative viability (HCC-827; first compound 0.01 µM) of 0.539, a relative viability (HCC-827; first compound 0.03162 µM) of 0.59 and a relative viability (HCC-827; first compound 0.1 µM) of 0.585. It also gave a relative viability (HCC-827; first compound 0.3162 µM) of 0.587, a relative viability (HCC-827; first compound 1 µM) of 0.516 and a relative viability (NCI-H1437; first compound 0.01 µM) of 0.564. For the same compound, the relative viability (NCI-H1437; first compound 0.03162 µM) was 0.529, the relative viability (NCI-H1437; first compound 0.1 µM) was 0.622 and the relative viability (NCI-H1437; first compound 0.3162 µM) was 0.521. For the same compound, the relative viability (NCI-H1437; first compound 1 µM) was 0.495, the relative viability (NCI-H1650; first compound 0.01 µM) was 0.695 and the relative viability (NCI-H1650; first compound 0.03162 µM) was 0.564. The relative viability (NCI-H1650; first compound 0.1 µM) was 0.783, the relative viability (NCI-H1650; first compound 0.3162 µM) was 0.598 and the relative viability (NCI-H1650; first compound 1 µM) was 0.457. The relative viability (NCI-H1666; first compound 0.01 µM) was 0.788, the relative viability (NCI-H1666; first compound 0.03162 µM) was 0.834 and the relative viability (NCI-H1666; first compound 0.1 µM) was 0.93. The relative viability (NCI-H1666; first compound 0.3162 µM) was 0.973, the relative viability (NCI-H1666; first compound 1 µM) was 0.875 and the relative viability (NCI-H1792; first compound 0.01 µM) was 0.432. For the same compound, the relative viability (NCI-H1792; first compound 0.03162 µM) was 0.42, the relative viability (NCI-H1792; first compound 0.1 µM) was 0.415 and the relative viability (NCI-H1792; first compound 0.3162 µM) was 0.518. The relative viability (NCI-H1792; first compound 1 µM) was 0.232, the relative viability (NCI-H1975; first compound 0.01 µM) was 0.328 and the relative viability (NCI-H1975; first compound 0.03162 µM) was 0.314. It also gave a relative viability (NCI-H1975; first compound 0.1 µM) of 0.345, a relative viability (NCI-H1975; first compound 0.3162 µM) of 0.405 and a relative viability (NCI-H1975; first compound 1 µM) of 0.348. It also gave a relative viability (NCI-H2342; first compound 0.01 µM) of 0.787, a relative viability (NCI-H2342; first compound 0.03162 µM) of 0.783 and a relative viability (NCI-H2342; first compound 0.1 µM) of 0.815. For the same compound, the relative viability (NCI-H2342; first compound 0.3162 µM) was 0.858, the relative viability (NCI-H2342; first compound 1 µM) was 0.928 and the relative viability (NCI-H23; first compound 0.01 µM) was 0.321. For the same compound, the relative viability (NCI-H23; first compound 0.03162 µM) was 0.341, the relative viability (NCI-H23; first compound 0.1 µM) was 0.432 and the relative viability (NCI-H23; first compound 0.3162 µM) was 0.4. It also gave a relative viability (NCI-H23; first compound 1 µM) of 0.319, a relative viability (NCI-H358; first compound 0.01 µM) of 0.127 and a relative viability (NCI-H358; first compound 0.03162 µM) of 0.15. The relative viability (NCI-H358; first compound 0.1 µM) was 0.143, the relative viability (NCI-H358; first compound 0.3162 µM) was 0.139 and the relative viability (NCI-H358; first compound 1 µM) was 0.125. It also gave a relative viability (NCI-H441; first compound 0.01 µM) of 0.545, a relative viability (NCI-H441; first compound 0.03162 µM) of 0.506 and a relative viability (NCI-H441; first compound 0.1 µM) of 0.489. The relative viability (NCI-H441; first compound 0.3162 µM) was 0.529, the relative viability (NCI-H441; first compound 1 µM) was 0.408 and the relative viability (NCI-H596; first compound 0.01 µM) was 0.865. For the same compound, the relative viability (NCI-H596; first compound 0.03162 µM) was 0.879, the relative viability (NCI-H596; first compound 0.1 µM) was 0.677 and the relative viability (NCI-H596; first compound 0.3162 µM) was 0.778. It also gave a relative viability (NCI-H596; first compound 1 µM) of 0.646, a relative viability (NCI-H650; first compound 0.01 µM) of 1.03 and a relative viability (NCI-H650; first compound 0.03162 µM) of 1.01. The relative viability (NCI-H650; first compound 0.1 µM) was 0.962, the relative viability (NCI-H650; first compound 0.3162 µM) was 1.07 and the relative viability (NCI-H650; first compound 1 µM) was 0.925. The relative viability (NCI-H838; first compound 0.01 µM) was 0.469, the relative viability (NCI-H838; first compound 0.03162 µM) was 0.515 and the relative viability (NCI-H838; first compound 0.1 µM) was 0.514. For the same compound, the relative viability (NCI-H838; first compound 0.3162 µM) was 0.435, the relative viability (NCI-H838; first compound 1 µM) was 0.443 and the relative viability (SK-MES-1; first compound 0.01 µM) was 0.601. For the same compound, the relative viability (SK-MES-1; first compound 0.03162 µM) was 0.562, the relative viability (SK-MES-1; first compound 0.1 µM) was 0.525 and the relative viability (SK-MES-1; first compound 0.3162 µM) was 0.584. For the same compound, the relative viability (SK-MES-1; first compound 1 µM) was 0.512, the relative viability (SW 900; first compound 0.01 µM) was 0.787 and the relative viability (SW 900; first compound 0.03162 µM) was 0.916. For the same compound, the relative viability (SW 900; first compound 0.1 µM) was 0.947, the relative viability (SW 900; first compound 0.3162 µM) was 0.665 and the relative viability (SW 900; first compound 1 µM) was 0.522.

Source: the supplement of paper PMC10307832
